No end group written: not given here.
Assays:
Assay type in all cases: cell-based, human
[1] = test system: PBL; assay: ELISA of cytokine secretion by PBL stimulated once with peptide-pulsed DC; details: peptide DC ratio 16:1, one out of five experiments, six donors
Experimental: (§1) Human PBMC were separated from buffy coat samples of naive donors using Ficoll UNI-SEPmaxi tube. Separated cells were suspended in RPMI medium supplemented with 10% FCS, L-Glutamine, Sodium Pyruvate, MEM-EAGLE non-essential amino-acids, HEPES and Gentamycin Sulphate (Bet-Haemek Industries, IL) and cultivated for 4 h at 37° C. in a culture dish (Corning 150 mm×25 mm). Adherent cells were collected and cultured for 7 days in serum free DCCM-1 medium supplemented with L-Glutamine, huIL-4 (1000 IU/ml) (Cytolab IL) and GM-CSF-80 ug/ml (Cytolab IL). On day seven floating cells were collected and loaded with 50 ug/ml of examined peptide for 18 h at 37° C.
(§2) Cytokine release was studied during the culture of stimulated T-cells. The evaluated samples were collected from the T cell culture medium on day 2, 3, and 5 and stored until use at −20° C.
(§3) […] of the selected capture antibody (e.g. anti-Hu IFN-Gamma, or anti-Hu TNF-alfa or anti IL-2) were added to each well at the final concentration of 5 μg/ml in PBS. Plates were incubated for 2 h at R.T. or over night at 4° C. Next, […] of blocking solution were added for an incubation of 2 h at R.T. […] of evaluated samples were added in duplicate into 2 wells for 2 hours at RT. After 2 h of incubation at R.T plates were washed λ4 times in washing solution. In the next step, a Biotin-conjugated detection antibody (relevant to coated antibody) was added at a final concentration of 10 μg/ml in total volume of 100 μl for 1 h at R.T. Finally, 100 μl/well working dilution (1:10000 in Blocker solution) of Streptavidin-HRP were added to each well and incubated for 1 h at R.T.
(§4) Plates were washed λ6 times with PBS-Tween (0.4%) and 100 μl/well of TMB/E Solution (CHEMICON, Catalog #ES001) was added. The plates were then exposed until blue color appeared in the wells of the positive control and no color was detected in the blank wells. To stop the color reaction, 50 μl/well of 10% of Sulfuric acid was added. The plates were counted in ELISA-Reader using a 450 nm filter.

[2] = test system: lymphocytes from naive donors; assay: Proliferation assay, kinetics of lymphocyte activation as summarised in text (presentation mode not stated); details: summary of five experiments
Experimental: (§5) Proliferation analysis was conducted in three different methods. In all three methods, plates were cultured for 3-5 days under visual control and then 0.5 […]Cu/well of 3[H] (Amersham) was added for additional culture of to 18 h at 37° C. In the last step, plates were harvested and the radioactive counts were measured in a □ counter. • 1. DC indirect presentation: In the first method, 100 µl of 2×10^6 thawed PBL were placed in U-shape Bottom 96 well plate (Nunc) with RPMI medium supplemented with 5% H AB serum, L-Glutamine, Sodium Pyruvate, MEM-EAGLE non-essential amino-acids, HEPES and Gentamycin. At the next stage 100 µl of 25×10^4 peptide-pulsed DC were added to each three wells of PBL and underwent proliferation analysis as described above. • 2. PBL direct presentation: In the 2nd method, 100 µl of 2×10^6 PBL were placed in Flat Bottom 96 well plates (Corning) and stimulated with different concentrations (0.05 ug/ml-2 ug/ml) of peptides. In the next step the cells underwent proliferation analysis as described above. • 3. PBMC direct presentation: In third method PNMC were used under similar conditions as described for the second method.
A different parameter for assessing the properties of ImMucin and the other VXL-peptide epitopes is by analyzing the time until a maximal peak of activity occurs and the optimal dose for maximal stimulation. Maximal peak of PBL activation is determined when <50% of the PBLs appear in clumps. In these experiments, the kinetic (time) in the proliferation of lymphocytes from the six naive donors stimulated at a fix dose of 0.05-1 ug/ml by ImMucin and other VXL-Peptides, was observed.

[3] = test system: ImMucin specific T-cell subpopulation; assay: Proliferation of the ImMucin-specific T-cell subpopulation after three stimulations; details: one out of two experiments, four donors
From the text: (§6) Thawed PBLs underwent 1st stimulation with ImMucin pulsed Autologues DC at a ratio of 20:1 and cultured for 7 days in dedicated T cell Medium. T cell medium contained RPMI medium supplemented with 10% FCS, L-Glutamine, Sodium Pyruvate, MEM-EAGLE non-essential amino-acids, HEPES and Gentamycin Sulphate (Bet-Haemek Industries, IL) as well as with 50 IU/ml of recombinant IL-7 (Cytolab IL). For the second stimulation, PBL were transferred to adherent autologues ImMucin-pulsed PBMC and cultured for additional 5 days in T cell Medium. At the end of the 5 days, medium was partial replaced with fresh medium containing 1 ug/ml of ImMucin and 50 IU/ml IL-2 for a third stimulation of 48 h at 37° C. Following the last stimulation ImMucin T cell line was checked for immune activation properties.
as §5
(§7) For that purpose, an enriched ImMucin-specific T cell subpopulation was produced via repeated stimulation with ImMucin. The specificity of the subpopulation for ImMucin, as well as to the other VXL epitopes, was examined using proliferation assays, cytokine release assays, FACS analysis in which the percentage and type of cells enriched during the enrichment process was analyzed, and using a CTL assay against selected target cells.
(§8) For producing the specific T cell subpopulation PBL were stimulated three times for 7, 5 and 2 days with ImMucin presented via DC and PBMC. Following the 3rd stimulation the cells were evaluated against the different VXL epitopes.

[4] = test system: T-Cell specific subpopulation (Clones); assay: ELISA of cytokine secretion by the T-cell specific subpopulation (clones) stimulated with peptides; details: two experiments, four donors
From the text: as §6, §2, §3, §4, §7, §8

[5] = test system: PBL; assay: Proliferation of PBL, DC indirect presentation (peptide-pulsed autologous DC); details: for PBL Index of stimulation (SI) via DC: naive donors, CPM sample / CPM control, representative of 5 experiments; for IS (SI of the peptides as indicated in Table 7): one out of five experiments; for IS (SI of the peptides as indicated in Table 7) / Optimal dose via DC: six donors; for Optimal dose via DC: optimal dose required for PBL activation; for Optimal dose via DC / Peak of Proliferation (Hours) via DC: average of 5 experiments; for Peak of Proliferation (Hours) via DC: visual inspection by light microscopy daily during 5 days
Experimental: as §1, §5
In the first set of experiments, the 21mer ImMucin, its different 9mer epitopes and other control epitopes (Table 3) were evaluated in proliferation assays with the aim of finding their optimal mode of presentation, stimulated dose as well as their peak of activity (time wise).
To evaluate the most efficient method for priming of PBLs with the different peptides, the following methods were compared:
a. In-direct presentation of the peptide via Autologues-pulsed DC
(§9) Five experiments were performed according to the protocol described in material and methods with buffy-coat enriched PBLs obtained from six different naive donors (obtained from the Israeli blood bank).

[6] = test system: PBMC; assay: Proliferation, direct presentation of peptide via PBMC (monocytes); details: for PBL Index of stimulation (SI) via PBMC: naive donors, representative of 5 experiments; for Optimal dose via PBMC: optimal dose required for PBL activation, six donors; for Optimal dose via PBMC / Peak of Proliferation (Hours) via PBMC: average of 5 experiments; for Peak of Proliferation (Hours) via PBMC: visual inspection daily during 5 days
Experimental: as §5
b. Direct presentation of the peptides via PBMC i.e. monocytes
as §9

[7] = test system: PBL; assay: Proliferation of PBL, direct presentation of peptide without APC; details: for PBL Index of stimulation (SI) Direct no APC: naive donors, representative of 5 experiments; for Optimal dose Direct no APC: optimal dose required for PBL activation, six donors; for Optimal dose Direct no APC / Peak of Proliferation (Hours) Direct no APC: average of 5 experiments; for Peak of Proliferation (Hours) Direct no APC: visual inspection daily during 5 days
Experimental: In all three methods, plates were cultured for 3-5 days under visual control and then 0.5 □Cu/well of 3[H] (Amersham) was added for additional culture of to 18 h at 37° C. […] DC indirect presentation: In the first method, 100 µl of 2×10^6 thawed PBL were placed in U-shape Bottom 96 well plate (Nunc) with RPMI medium supplemented with 5% H AB serum, L-Glutamine, Sodium Pyruvate, MEM-EAGLE non-essential amino-acids, HEPES and Gentamycin. At the next stage 100 µl of 25×10^4 peptide-pulsed DC were added to each three wells of PBL and underwent proliferation analysis as described above. • 2. PBL direct presentation: In the 2nd method, 100 µl of 2×10^6 PBL were placed in Flat Bottom 96 well plates (Corning) and stimulated with different concentrations (0.05 ug/ml-2 ug/ml) of peptides. In the next step the cells underwent proliferation analysis as described above. • 3. PBMC direct presentation: In third method PNMC were used under similar conditions as described for the second method.
Direct presentation of peptides to PBL without any APC

Sequence	IFN-gamma [1] [ng/mL]	IL-2 [1] [ng/mL]	peak of proliferation / maximum stimulation [2] [h]	IS (Average) [3]	IS (Range) [3]	IL-2 % of clones [4] [%]	INF-gamma % of clones [4] [%]	TNF-Alfa % of clones [4] [%]	TNF-Alfa Range [4] [ng/mL]	IS (SI of the peptides as indicated in Table 7) [5]	Optimal dose via DC [5]	Peak of Proliferation (Hours) via DC [5] [h]	PBL Index of stimulation (SI) via PBMC [6]	Optimal dose via PBMC [6] [µg/mL]	Peak of Proliferation (Hours) via PBMC [6] [h]	PBL Index of stimulation (SI) Direct no APC [7]	Optimal dose Direct no APC [7]	Peak of Proliferation (Hours) Direct no APC [7]	further results
LLLLTVLTV [VXL-2, LLLLTVLTV]	0	0	120	3.275	1.45-5.1	50	25	83	1.9 to 9.4	2.2	12.5-25 × × 10e6/well	120	1.2	0.05 to 1	120	0	No Influence	No proliferation	TNF-Alfa [1]: 0 ng/mL; IL-2 Range [4]: 2.53 to 10.2 ng/mL; INF-gamma Range [4]: 1.4 to 8.9 ng/mL; IL-2 Range ng/ml ([4]; listed as VXL2): high; INF-gamma Range ng/ml ([4]; listed as VXL2): high; PBL Index of stimulation (SI) via DC [5]: 2.2
LLLTVLTVV [VXL-1, LLLTVLTVV]	0	0	120	3.05	1.66-4.4	83	33	83	2.7 to 9.8	3.2	12.5-25 × × 10e6/well	120	1.59	0.05 to 1	120	0	No Influence	No proliferation	PBL Index of stimulation (SI) via DC ([5]; listed as VLX-1): 3.2

— patent US11179452B2, “Antigen specific multi epitope vaccines” (priority 2006, dated 2021)
